Values joined by “and” are separate entries in the source; they are usually repeats but may differ in a detail not shown here. Identical values can stand only once. Like-named read-outs stand apart in the source and are kept apart here. Square brackets hold non-standard residues; d marks the D form. Ends that are not written are not given here. Cit = NC(=O)NCCC[C@H](N)C(=O)O
Assays:
PhTET2 and PhTET3 = experiment: Aminopeptidase cleavage of N-terminal amino acids during dynamic sequencing (RS/NRS durations); type: biochemical, P. horikoshii
Experimental: To evaluate the kinetic principles of the dynamic sequencing method when applied to diverse sequences, the synthetic peptide DQQRLIFAG (SEQ ID NO: 794), corresponding to a segment of human ubiquitin, was characterized (FIGS. 3A-3D). Sequencing reactions were performed using a combination of three differentially-labeled recognizers—PS610, PS961, and PS691—and two aminopeptidases—PhTET2 and PhTET3 (Materials and Methods). The example trace in FIG. 3A starts with an NRS that corresponds to the time interval during which residues in the initial DQQ motif are present at the N-terminus. The first RS starts at 120 min, upon exposure of N-terminal arginine to recognition by PS691. Subsequent cleavage events sequentially expose N-terminal leucine, isoleucine, and phenylalanine to their corresponding recognizers, with fast transitions (average <10 s) from one RS to the next. The transition from leucine to isoleucine recognition by PS961 is readily identified as a sharp change in average PD. This overall pattern is replicated across many instances of sequencing of the same peptide, with similar PD statistics across traces, as each peptide molecule follows the same reaction pathway over the course of the sequencing run (FIGS. 3B-3C).
The distribution of RS durations across an ensemble of replicate traces defines the rate of cleavage of each recognizable NAA. […] The distribution of NRS durations reports the cleavage rate of a run of one or more non-recognized NAAs. The average NRS duration for the initial DQQ motif was 153 min (FIG. 3D). Average cleavage rates are a key parameter and are controlled by the aminopeptidase concentration in the assay (FIGS. 8D-8E). Given the exponential behavior, average RS durations of 10 to 40 min were targeted to provide sufficient time for pulsing data collection, avoid missed RSs due to rapid cleavage, and minimize excessively long RS durations. It was found helpful to visualize the sequencing profiles of peptides as kinetic signature plots—simplified trace-like representations of the time course of complete peptide sequencing containing the median PD for each RS, and the average duration of each RS and NRS (FIG. 3E). These highly characteristic features provide a wealth of sequence-dependent information for mapping traces from peptides to their proteins of origin.
A second chip check was then performed. […] Data was recorded for 15 min.

amino acid recognizers = experiment: Sequencing of β-amyloid wild type and variant peptides, average pulse width; type: binding; details: for Average Pulse Width, tripeptide LVX: when sequencing L
Excerpt: Aspects of the technology described herein may be used for protein preparation, peptide library preparation, peptide sequencing and peptide profiling of synthetic samples of ß-amyloid. In this example, the wild type (LVFFAE (SEQ ID NO: 827)) and variants (17LVFFAK22 (SEQ ID NO: 828), 17LVFFGK22 (SEQ ID NO: 829), 17LVFFAG22 (SEQ ID NO: 830), and 17LVPFAE22 (SEQ ID NO: 831)) of β-amyloid were digested and labeled for further analysis. Alternatively, β-amyloid may be purified from common sources, such as cerebrospinal fluid (CSF), for downstream analysis.
A chip including aspects of the technology described herein was used for the downstream sequencing of the sample material. The chip contained millions of wells, each of which acted as an independent sequencing machine. Once the sample was loaded, cloud technology was used to set up the sequencing run and collect all the data for visualization. Once collected in the cloud, a set of proprietary algorithms, which can identify amino acids based on the specialized optical pulse patterns of each binding event, determined the sequence of the peptide and mapped that sequence back to a specific protein or protein variant.
Here, the protein sequencing technology and analysis pipeline was successfully used to distinguish a variety of clinically significant ß-amyloid point mutations. The sequencing traces containing pulse patterns of the variants, 17LVFFAK22 (SEQ ID NO: 828), 17LVFFGK22 (SEQ ID NO: 829), 17LVFFAG22 (SEQ ID NO: 830), and 17LVPFAE22 (SEQ ID NO: 831), were compared to the wild type, 17LVFFAE22 (SEQ ID NO: 827). Software automatically identified pulses containing the same intensity, lifetime, and kinetics, which determined a recognition segment for a specific amino acid. Each recognition segment was color coded based on the N-terminal amino acid, and the collection of recognition segments provided a characteristic signature of the peptide.
Time domain sequencing functionality can observe sequence changes indirectly during peptide profiling. The specific PTMs and folding of each variant cause them to display distinctly different patterns, which can then be inferred via alterations in pulse width. For example, a point mutation in a sequence—at the N-terminal end, or at the penultimate and antepenultimate positions, of the peptide—can generate an altered pulse pattern, compared to another sequence.

PS1223 = experiment: Dynamic single-molecule sequencing, recognition by PS1223; type: binding; details: recognizer PS1223, recognition of the N-terminal amino acid
Chain of PS1223 (as listed by the source): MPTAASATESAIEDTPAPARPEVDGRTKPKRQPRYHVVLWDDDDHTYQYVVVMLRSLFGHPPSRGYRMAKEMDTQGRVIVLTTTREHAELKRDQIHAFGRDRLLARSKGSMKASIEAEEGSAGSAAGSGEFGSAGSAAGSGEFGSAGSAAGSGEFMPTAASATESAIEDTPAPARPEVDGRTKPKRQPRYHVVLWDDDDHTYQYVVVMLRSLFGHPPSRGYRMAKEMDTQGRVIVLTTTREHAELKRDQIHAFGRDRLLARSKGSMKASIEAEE
Experimental: Sequencing reactions using the recognizers PS610 (FYW), PS1220 (R), and PS1223 (LIV) were performed separately for the QP706 and QP1073 peptide fragments. Each recognizer was labeled with a unique dye and/or unique number of dyes. A scatter plot of bin ratio v. pulse duration is shown for the QP706 peptide fragment in FIG. 18A and for the QP1073 peptide fragment in FIG. 18B. In the plot of FIG. 18A, three clusters corresponding to FLE, LEQ, and RFL segments are visible. […] In the plot of FIG. 18B, two clusters corresponding to FLE and LEQ segments are visible, but there is no cluster corresponding to RFL.
In this example, sequencing reactions were conducted for 4 pairs of unmodified and citrullinated peptides: QP1028 & QP1029, QP1030 & QP1031, QP1032 & QP1033, and QP707 & QP789. […] For the QP1028 & QP1029 and QP1030 & QP1031 pairs, sequencing reactions were conducted using the PS610 (FYW) recognizer. For the QP1032 & QP1033 and QP707 & QP789 pairs, sequencing reactions were conducted using the PS1223 (LIV) recognizer.

PS961 = experiment: Dynamic single-molecule sequencing, recognition by PS961; type: binding, Planctomycetes; details: arginine or citrulline at position 2
Chain of PS961 (as listed by the source): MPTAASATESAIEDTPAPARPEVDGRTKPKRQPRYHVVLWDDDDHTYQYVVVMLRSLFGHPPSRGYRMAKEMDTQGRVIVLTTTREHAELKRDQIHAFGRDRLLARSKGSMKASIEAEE
Experimental: The semiconductor chip was placed in the sequencing device and a chip check was performed to test electronic circuit function and to optimize laser coupling alignment. The chip was then removed from the device socket and the chip was washed twice with 50 μL of 70% isopropanol, followed by four washes with 30 μL of wash buffer (50 mM MOPS pH 8.0, 60 mM potassium acetate, 50 mM glucose, 20 mM magnesium acetate, and surfactant mix) through a flow cell attached to the chip. A second chip check was then performed. The laser was then blocked via an integrated software-controlled shutter, peptide complex was added to a final concentration of 1-10 nM and mixed thoroughly, and the chip was incubated for 15 min. The chip was then washed six times with wash buffer, followed by addition of an imaging solution (wash buffer with 5 mM Trolox and an oxygen scavenging system). The laser was unblocked and the occupancy percentage (target 10-30%, Poisson distributed) was recorded by acquiring a photobleaching signal from a fluorophore attached to the peptide complex during 5 min of laser illumination. For NAA recognition-only assays, after peptide loading, labeled recognizer was added to a final concentration of 50 nM PS610, 100 nM PS691, or 250 nM PS961 (as indicated according to the experiment), and data was recorded for 10 hours. For dynamic sequencing assays, after peptide loading, a mixture of labeled recognizers was added to obtain final concentrations of 50 nM PS610, 100 nM PS691, and 250 nM PS961. Data was recorded for 15 min. The laser was then blocked briefly and aminopeptidases were added to the sequencing reaction via the flow cell and mixed thoroughly (final concentration 2-8 μM PhTET2 and/or 20-80 μM PhTET3, as indicated according to the experiment). The laser was then unblocked, and data was recorded for 10 hours. For all runs, 30 μL of mineral oil was added to fluid reservoirs at each port of the flow cell to prevent evaporation during the run.
The measured signal on-chip comprises various noise components, the most dominant one being due to fluorescent emissions from diffusing recognizers in the reaction chamber. The pulse caller algorithm for a given reaction chamber starts by estimating the statistical properties of this background noise component. Once an estimate within certain error bounds has been established, the algorithm works in an online fashion observing new frames of data as they are generated. At each point in time, the algorithm maintains state indicating whether the signal is due to the background component only or a pulse from a recognizer-NAA interaction is being observed. The state transition from background to pulse is triggered using an edge detection test where the shift in signal is expected to be significant with respect to the background component's statistical distribution. The state transition from pulse to background is triggered when a small window of the most recent frames of the signal appears to conform to the background component's distribution again. The algorithm maintains an updated model of the background component as new background frames are observed. This provides robustness against drift in the signal intensity together with a feedback control loop that maintains a stable optical coupling of the laser into the chip based on any such detected drift. As detected pulses can be due to true recognizer-to-dipeptide interaction events as well as other occasional transient noise spikes, a downstream filter layer is employed to test the significance of pulse events based on their duration, intensity, and noise patterns within the context of the full timeline of the run and the entire dataset of reaction chambers.
Initial regions are determined by performing a sliding window calculation of pulse rate along the time dimension of a series of pulses. Regions with a mean pulse rate >1 pulse/min are then subdivided according to a greedy bisection approach.

PS621 = molecular target: T1, PS621 (Kluyveromyces lactis, UniProt O60014, E174T/N105S/N176F/R116K/S153T/V146T); experiment: Dynamic single-molecule sequencing, recognition by PS621; type: binding; details: unmodified arginine peptide, average of 10 sequencing reactions
T1 construct: PS621; […]
T1 sequence (O60014 other isoform, or with tags, fused parts or gaps N105S/R116K/V146T/S153T/E174T/N176F): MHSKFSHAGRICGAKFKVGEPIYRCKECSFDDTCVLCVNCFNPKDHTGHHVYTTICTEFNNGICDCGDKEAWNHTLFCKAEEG
Excerpt: PTM detection involved isolating peptides and subjecting them to a real-time single-molecule protein sequencing reaction. Proteins were first digested into peptide fragments and conjugated C-terminally to macromolecular linkers. The peptide complexes were immobilized at the bottom of nanoscale wells on a semiconductor chip, resulting in single peptide molecules with exposed N-termini ready for sequencing. During the sequencing reaction, the surface-immobilized peptides were exposed to a solution containing dye-labeled NAA recognizers that bound on and off to their cognate NAAs with characteristic kinetic properties. Aminopeptidases in solution sequentially removed individual NAAs to expose subsequent amino acids for recognition. Fluorescence lifetime, intensity, and kinetic data were collected in real time and analyzed to determine amino acid sequence and PTM content.
The trace-level output included distinct pulsing regions called recognition segments (RSs); each RS corresponded to a period of time between aminopeptidase cleavage events during which an NAA recognizer bound on and off to its exposed target NAA. Chemical modifications to a target NAA or to a nearby downstream amino acid can modulate recognizer affinity, resulting in a characteristic change in the average pulse duration (PD) during an RS relative to an unmodified peptide. These modifications can also influence the rate of aminopeptidase cleavage of an NAA, resulting in a characteristic change in average duration of the corresponding RS.
Synthetic peptides corresponding to residues 69 to 76 of P38MAPKa were generated in three versions containing either arginine, ADMA, or SDMA at position 2: YRELRLLK (SEQ ID NO: 834), YRADMAELRLLK (SEQ ID NO: 835), and YRSDMAELRLLK (SEQ ID NO: 836). Each peptide was sequenced using three recognizers—PS610 (F, Y, W), PS961 (L, I, V), and PS621 (R)—and data were analyzed to identify RSs, determine the mean PD of each RS, and characterize the kinetic signature of each peptide.
In this example, sequencing reactions were performed using PS621 (R), PS610 (FYW), and PS961 (LIV) recognizers for 9 pairs of peptides. Each pair comprised one peptide comprising an unmodified arginine residue followed by a non-arginine amino acid (referred to as an R-X peptide) and one peptide having an identical sequence except that the unmodified arginine was modified to be ADMA (referred to as an ADMA-X peptide).

[1] = RS duration across replicate traces

DQQRLIFAG [synthetic peptide corresponding to a segment of human ubiquitin]
Average NRS duration for the initial DQQ motif (PhTET2 and PhTET3): 153 min
Average cleavage time, N-terminal arginine (PhTET2 and PhTET3; [1]): 31 min
Average cleavage time, N-terminal isoleucine (PhTET2 and PhTET3; [1]): 39 min
Average cleavage time, N-terminal leucine (PhTET2 and PhTET3; [1]): 54 min
Average cleavage time, N-terminal phenylalanine (PhTET2 and PhTET3; [1]): 86 min

E22Q: β-amyloid variant, tripeptide FAQ (Amyloid-beta protein 42; UniProt P05067 691-693, looked up, fragment E22Q) [Peptide E22Q]
Average Pulse Width, tripeptide FXX (amino acid recognizers): 2.67 (FAQ) seconds

ICitLAFAYPDDDK (I[Cit]LAFAYPDDDK-NH2; also: C-terminal azidolysine (general statement for all synthetic peptides)) [QP1033]
Pulse Width (PS1223): 0.84 s

IRLAFAYPDDDK [QP1032]
Pulse Width (PS1223): 0.58 s

LRLAFAYPDDDK [QP707]
Pulse Width (PS1223): 0.42 s
Median PD of recognition of N-terminal leucine by PS961 (PS961): 0.43 s
RS R-X (PS621; RS duration): 17.3 min
PW of R-X (PS621): 0.47 s

LVFFAE [WT, β-amyloid wild type]
Average Pulse Width, tripeptide FXX (amino acid recognizers): 2.43 (FAE) seconds
Average Pulse Width, tripeptide FXX (amino acid recognizers; listed as wild type): 2.43 s
Average Pulse Width, tripeptide LVX (amino acid recognizers): 3.26 (LVF) seconds
Average Pulse Width, tripeptide LVX (amino acid recognizers; listed as wild type): 3.26 s

LVFFAG [Peptide E22G, β-amyloid variant]
Average Pulse Width, tripeptide FXX (amino acid recognizers): 2.99 (FAG) seconds

LVFFAK [Peptide E22K, β-amyloid variant]
Average Pulse Width, tripeptide FXX (amino acid recognizers): 2.79 (FAK) seconds

LVPFAE [Peptide F19P, β-amyloid variant]
Average Pulse Width, tripeptide LVX (amino acid recognizers): 1.86 seconds and 1.86 (LVP) seconds

From patent publication US20230213527A1, “COMPOSITIONS AND METHODS FOR POLYPEPTIDE ANALYSIS” (Quantum-Si Incorporated, priority 2021, published 2023)
